These antisense oligonucleotides have a phosphorothioate backbone; sugars and methylation of C are not fully specified.
Note: test concentration or dose not given here.

The first data set has as its target ETS2. Conditions: ASO.
The sequence TTCTTTGGAATGCCCAGG displayed a remaining target (mRNA or protein) (fraction of control) of 0.93.

With GGGTAATTCTGTGTCTGC, the remaining target (mRNA or protein) (fraction of control) turned out to be 0.96.

For the sequence CTTAAAAGCACTGTGAGT, the remaining target (mRNA or protein) (fraction of control) is 0.63.

Sequence TGTTCCCAGAGAATGTCA showed a remaining target (mRNA or protein) (fraction of control) of 0.63.

ATCCGTCTCCAGTCCAGC displayed a remaining target (mRNA or protein) (fraction of control) of 0.8.

TTGCAGTGTTTGCTCTTC: the remaining target (mRNA or protein) (fraction of control) is ≥ 1.

GAAGCCACTGGCATACCT displayed a remaining target (mRNA or protein) (fraction of control) of 0.64.

Consider CGGCGCTTGGTCGGGACG, for which the remaining target (mRNA or protein) (fraction of control) was ≥ 1.

In the case of AGCTGTCCGCACCGTTCT, the remaining target (mRNA or protein) (fraction of control) was ≥ 1.

CATTCATGCCGAACCTCT: the remaining target (mRNA or protein) (fraction of control) was ≥ 1.

For CTGCCTTTCCTGGGTCCT, the remaining target (mRNA or protein) (fraction of control) is ≥ 1.

As for GGCCACTTTCCTGGACAT, the remaining target (mRNA or protein) (fraction of control) is ≥ 1.

In the case of AACCCGTTGCACATCCAG, the remaining target (mRNA or protein) (fraction of control) is ≥ 1.

As to CCAGAGACGATCAGGGAG, the remaining target (mRNA or protein) (fraction of control) is ≥ 1.

As for GCAGGTATAACTGGTTTG, the remaining target (mRNA or protein) (fraction of control) is ≥ 1.

With GGCCGGCTCAGGGTGGTC, the remaining target (mRNA or protein) (fraction of control) amounted to 0.51.

As to AGGAGCGGGAGGAGGAGG, the remaining target (mRNA or protein) (fraction of control) worked out at 0.87.

Regarding TAAGGCTTGACTCATCAC, the remaining target (mRNA or protein) (fraction of control) was ≥ 1.

As for CCGACGTCTTGTGGATGA, the remaining target (mRNA or protein) (fraction of control) was 0.45.

Consider CATGGTTGTTTCCTTCCC, for which the remaining target (mRNA or protein) (fraction of control) was ≥ 1.

TCGTAATAGTAGCGTAAG came in with a remaining target (mRNA or protein) (fraction of control) of 0.85.

CAAGTTGCTGCCTGGGAA returned a remaining target (mRNA or protein) (fraction of control) of 0.39.

Regarding GTCCATATTCTTGATTCC, the remaining target (mRNA or protein) (fraction of control) was ≥ 1.

For GGACGGCCGAGTGGAGGG, the remaining target (mRNA or protein) (fraction of control) came to 0.81.

In turn, GCGTGCAGTTCCTCGGGC registered a remaining target (mRNA or protein) (fraction of control) of 0.81.

GGAACGGAGGTGAGGTGT gave a remaining target (mRNA or protein) (fraction of control) of 0.61.

TGCCAGCTCCAGAAAGCG gave a remaining target (mRNA or protein) (fraction of control) of 0.84.

For AATAGTCTGTGTGTGTCC, the remaining target (mRNA or protein) (fraction of control) is ≥ 1.

GGCTGGCGCTTGAGTGTC registered a remaining target (mRNA or protein) (fraction of control) of 0.7.

On to GGAGCTGAGCCGAGACTT, for which the remaining target (mRNA or protein) (fraction of control) turned out to be 0.51.

Take TTTCCTCTTTCCCCACCG: the remaining target (mRNA or protein) (fraction of control) is ≥ 1.

Sequence TGGCTTATTGAGGCAGAG had a remaining target (mRNA or protein) (fraction of control) of 0.94.

For the sequence GGGACCCATCAAAGGTGT, the remaining target (mRNA or protein) (fraction of control) came to 0.66.

With GTGCCAAAACCTAATGTA, the remaining target (mRNA or protein) (fraction of control) stood at 0.66.

GAGGCAGCCTGGTCAAGA had a remaining target (mRNA or protein) (fraction of control) of 0.61.

Consider TTTCTTGGTTTTCTTTGA, for which the remaining target (mRNA or protein) (fraction of control) is ≥ 1.

Regarding CAGCTCCAGGAGAAACTG, the remaining target (mRNA or protein) (fraction of control) is ≥ 1.

With CGTCCCACGGACTGCCAG, the remaining target (mRNA or protein) (fraction of control) was ≥ 1.

Sequence GGGTCACTCCTCTCTTGG showed a remaining target (mRNA or protein) (fraction of control) of 0.75.

CACAGTTGGCGGAGTCAT had a remaining target (mRNA or protein) (fraction of control) of 0.45.

In another data set the target is GNAI3. The settings on record: ASO.
With AGGTCATAATCACTGAGG, the remaining target (mRNA or protein) (fraction of control) was 0.75.

For the sequence CTTCTCAATAAAGTCCAC, the remaining target (mRNA or protein) (fraction of control) amounted to 0.65.

CCATGCTTCTCAATAAAG had a remaining target (mRNA or protein) (fraction of control) of 0.58.

Turning to TTAAGAAATCCAAGTGAT, the remaining target (mRNA or protein) (fraction of control) was ≥ 1.

As to AAGTTCCCTAATACAAAA, the remaining target (mRNA or protein) (fraction of control) amounted to 0.85.

Sequence ATCTTGCTTCGCTCCACT returned a remaining target (mRNA or protein) (fraction of control) of 0.63.

Turning to ATCTCCTTGGTATCTTTT, the remaining target (mRNA or protein) (fraction of control) is 0.33.

AATGATTGAAGTTTCTGT displayed a remaining target (mRNA or protein) (fraction of control) of 0.73.

For the sequence GACTCCTTCTTCAGCACT, the remaining target (mRNA or protein) (fraction of control) amounted to 0.48.

In turn, AATTCCAATGTCTGACTT gave a remaining target (mRNA or protein) (fraction of control) of 0.51.

GTCTGACTTTAGCATCTC came in with a remaining target (mRNA or protein) (fraction of control) of 0.56.

In the case of GTGTTTCTACAATGCCTG, the remaining target (mRNA or protein) (fraction of control) was found to be 0.37.

AATGTAGTTAGACTGGGA: the remaining target (mRNA or protein) (fraction of control) stood at 0.46.

Sequence TAATTGCTGTCACTCCCT registered a remaining target (mRNA or protein) (fraction of control) of 0.65.

In the case of TGGCACAGGTGAAGTGAG, the remaining target (mRNA or protein) (fraction of control) amounted to 0.29.

In the case of ACACTGTAGTAACTTTCA, the remaining target (mRNA or protein) (fraction of control) stood at 0.6.

For the sequence ATGCAGCACCTCAACTTC, the remaining target (mRNA or protein) (fraction of control) turned out to be 0.4.

Take CAATCTTTAGCCGTCCCA: the remaining target (mRNA or protein) (fraction of control) was 0.49.

Take CATCTTGCTGAGTTGGAA: the remaining target (mRNA or protein) (fraction of control) came to 0.34.

The values above are taken from the OligoGym collection.
